Measured values from patent US20210100905A1, “APPLICATION OF COMPOUND OR TRADITIONAL CHINESE MEDICINE EXTRACT IN PREPARATION OF NUCLEIC ACID DELIVERY AGENT, AND RELATED PRODUCTS” (INSTITUTE OF BASIC MEDICAL SCIENCES CHINESE ACADEMY OF …, priority 2018, published 2021).

Assays:
A549 cell line = test: Fluorescence in situ hybridization (FISH) of small RNA; type: cell-based, human; settings: FIG. 12
Method: 3.3.3 Fluorescence in Situ Hybridization (FISH) of Small RNA
2) Fix in 4% paraformaldehyde (500 μl/well, prepared in PBS buffer) at room temperature for 20 min.
4) PBS was removed, and cells were permeabilized with PK (proteinase K) buffer at room temperature for 10 min.
9) The culture plate was placed in a hybridization cassette in hybridization buffer (50% formamide, 5×SSC, 5×Denharts, 250 μg/mL yeast RNA, 500 μg/mL herring sperm DNA) and pre-incubated at room temperature for 1 hour.
10) Add RNA probes (HJT-sRNA-m7 probe: 5′-[…]-3′ (SEQ ID NO: 27), Scrambled probe: 5′-[…]-3′ (SEQ ID NO: 28), U6 probe: 5′-TTTGCGTGTCATCCTTGCG-3′ (SEQ ID NO: 29)) to the hybridization buffer (the concentration of RNA probes was 0.1-0.2 ng/μl), denature at 85° C. for 5 min, and quickly place it on ice. […]
Mixtures of soybean PC, lipid No. 11 (18:0/18:2) and lipid No. 12 (16:0/18:2), and various small RNA(see below Table 3) were prepared by the reverse evaporation method and then added into A549 cell line (the final concentration of sRNA was 200 nM); the negative control group (control) was directly added with the same concentration of sRNA; the positive control group (RNAimax) was transfected with Lipofectamine RNAimax (transfection reagent 6 μ/well). The abundance of sRNA in the cells was detected by Taqman probe after 3 hours, and the relative expression level of sRNA was calculated by 2-ΔCt method.

[1] = system: MRC-5 cell (lung fibroblast); test: In vitro delivery of lipid nucleic acid mixture, RT-qPCR of intracellular small RNA; type: cell-based; settings: for delivery of double-stranded RNA into MRC-5 cells (real-time PCR) / delivery of HJT-sRNA-m7 single-stranded RNA into MRC-5 cells (real-time PCR): single lipid; for delivery of double-stranded RNA into MRC-5 cells (real-time PCR): boiling (heating) method, FIGS. 77, 91; for delivery of HJT-sRNA-m7 single-stranded RNA into MRC-5 cells (real-time PCR): boiling method, FIGS. 78, 92, 103
How it was run: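 A549 or MRC-5 cells seeded overnight, then given lipid–HJT-sRNA-m7 mixture (ether-evaporation or heated chloroform preparation) at 100 nM sRNA final for 12–24 h. After PBS washes, intracellular sRNA measured by stem-loop RT and SYBR Green qPCR; relative level by 2-ΔCt method with U6 reference.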

| Structure (SMILES) | localization of delivered nucleic acid (FISH) (A549 cell line) | amount of HJT-sRNA-m7 that entered the cells (RT-qPCR) ([1]; Example 2-1, FIG. 33, double-stranded, 100 nM, 24 hours, boiling 100° C. 30 min, No. 38 series) | delivery effect relative to that of RNAiMAX (real-time PCR) ([1]; double-stranded RNA, heating method, FIG. 91) | delivery of double-stranded RNA into MRC-5 cells (real-time PCR) [1] | delivery of HJT-sRNA-m7 single-stranded RNA into MRC-5 cells (real-time PCR) [1] | delivery effect relative to that of RNAiMAX (real-time PCR) ([1]; double-stranded HJT-sRNA-m7, reverse evaporation method, FIG. 77) |
| --- | --- | --- | --- | --- | --- | --- |
| CCCCC/C=C\C/C=C\CCCCCCCC(=O)O[C@H](COC(=O)CCCCCCCCCCCCCCCCC)COP(=O)([O-])OCC[N+](C)(C)C [No. 11, trimethyl(2-{[(2R)-2-[(9Z, 12Z)-octadeca-9,12-dienoyloxy]-3-(octadecanoyloxy)propyl-phosphonato]oxy}ethyl) azanium] | entered into cytoplasm and were primarily localized in cytoplasm | – | – | – | – | – |
| CCCCC/C=C\C/C=C\CCCCCCCC(=O)O[C@H](COC(=O)CCCCCCCCCCCCCCC)COP(=O)([O-])OCC[N+](C)(C)C [No. 12, (2-{[(2R)-3-(hexadecanoyloxy)-2-[(9Z,12Z)-octadeca-9,12-dienoyloxy]propylphosphonato]oxy}ethyl) trimethylazanium] | entered into cytoplasm and were primarily localized in cytoplasm | – | – | – | – | – |
| CCCCCC/C=C\CCCCCCCC(=O)O[C@H](COC(=O)CCCCCCCCCCCCCCC)COP(=O)(O)OCCN [No. 38, (2-aminoethoxy) [(2R)-2-[(9Z)-hexadec-9-enoyloxy]-3-(hexadecanoyloxy)propoxy] phosphinic acid] | – | effectively delivered nucleic acids into MRC-5 cells, showing an effect close to the transfection reagent RNAiMAX | about twice | delivered double-stranded RNA into A549 and MRC-5 cells | the efficiency of delivery was much higher than that of RNAiMAX | – |
| CCCCCCCCCCCCCCCCCCC[C@@H](O)[C@@H](N)CO [No. 41, Sphinganine (d22:0)] | – | – | – | delivered double-stranded RNA into MRC-5 cells | delivered HJT-sRNA-m7 single-stranded RNA into A549 and MRC-5 cells | significantly higher than that of RNAiMAX |
